From patent US20170362283A1, “NISIN-BASED COMPOUNDS AND USE THEREOF IN THE TREATMENT OF BACTERIAL INFECTIONS” (UNIVERSITEIT UTRECHT HOLDING B.V., priority 2015, published 2017)
Where two headings read alike, the source gives them in different places.

What was measured:
E. faecium E745 = assay: BioScreen growth assay for E. faecium E745; type: cell-based; details: 5 μM
Description: (§1) A BioScreen C instrument (Oy Growth Curves AB, Helsinki, Finland) was used to monitor effects of the compounds (6), (10), and (12) and the effect of compound (24) with R1-group (e), or Comparative compound B (nisin) on E. faecium growth (each compound administered at a fixed concentration 5 μM). E. faecium strains were inoculated at an initial OD660 of 0.05 into 300 μl TSB containing 1% DMSO and 1% glucose or into the same medium containing the antibiotic compounds at a final concentration of 5 μM. […]
(§2) The E. faecium strains used in these experiments are E. faecium E745 (vancomycin-ampicillin resistant hospital outbreak strain), E. faecium E980 (vancomycin-ampicillin susceptible human commensal isolate), E. Faecium E1133 (vancomycin-ampicillin resistant hospital outbreak strain), and E. faecium E1162 (vancomycin-susceptible ampicillin-resistant clinical isolate). The BioScreen growth assays for each strain was determined for the compounds (6), (10), (12) and also for compound (24) with R1-group (e) as well as nisin (Comparative compound B) and compared to non-treated strains, the results being shown in the Tables 9 to 12 below.

B. subtilis = details: duplicate experiments
E. coli = details: duplicate experiments
S. aureus = details: duplicate experiments
E. faecium E1133 = assay: BioScreen growth assay for E. faecium E1133; type: cell-based; details: 5 μM
Description: as §1, §2

erythrocytes = assay: Hemolysis assay; details: human erythrocytes, 1 h, at 32 μg/mL
Description: Human whole blood was centrifuged at 600×g for 15 min and levels of plasma and hematocrit were marked on the tube. Plasma was removed and the erythrocytes washed 3× with PBS (centrifuging at 600×g for 15 mins). After discarding the supernatant, the packed cells were stored on ice. 100 μL of the peptides (128 μg/mL in PBS, 2% DMSO) as well as a control solution comprised of 2% DMSO in PBS were added to the top row of a polypropylene, round-bottom 96 well plate and 50 μL of PBS to the rest of the wells. The peptides and the DMSO control solutions were then diluted serially down the rows. 200 μL of the packed cells were added to PBS (10 mL) and 50 μL of this suspension was added to each well. A column with DI water containing 0.1% Triton X-100 was used as the 100% lysis control, and the column containing the serially-diluted PBS (1.0% DMSO) control served as the 0% lysis reference. The cells were incubated at 37° C. for 1 h. After incubation the plates were centrifuged (800×g, 5 min) and 25 μL of the supernatant was added to 100 μL DI water in a flat-bottom plate (polystyrene). The absorption at 414 nm was recorded to measure the amount of free hemoglobin.

E. faecium E1162 = assay: BioScreen growth assay for E. faecium E1162; type: cell-based; details: 5 μM
Description: as §1, §2

[1] = Lipid II-binding in model membranes (carboxyfluorescein efflux from LUVs); type: biochemical; details: concentration of 5 nM; CF-loaded DOPC LUVs with 0.2% lipid II
Description: Large unilamellar vesicles (LUVs), composed of 1,2-dioleoyl-sn-glycero-3-phosphocholine (DOPC) spiked with 0.2% lipid II, were loaded with carboxyfluorescein (CF). The CF efflux was monitored by measuring the increase in fluorescence intensity at 515 nm, with excitation at 492 nm. In a cuvette, a solution (1 mL) of CF-loaded vesicles (20 μM final concentration) in buffer (Tris.HCl, pH 7.0 containing 100 mM NaCl) was prepared and the relevant final concentration of compounds (6), (10), and (12), and also compound (24) with R1-group (e), were added and the mixture was stirred for 1 min and the fluorescence was recorded (A0). After ca. 10 seconds, nisin (comparative compound B) was added (5 nM final concentration) and the fluorescence was followed until it stabilized, then recorded (Astable). Total membrane leakage was induced by the addition of Triton-X100 (final concentration 0.1%) and the fluorescence was recorded (Atotal). The percentile values were calculated by: […]

## nisin [Compound B]
E. faecium E745; time 0 h
  OD600: 0.01733
E. faecium E745; time 4 h
  OD600: 0.01033
E. faecium E745; time 8 h
  OD600: 0.01033
E. faecium E745; time 12 h
  OD600: 0.01067
E. faecium E745; time 16 h
  OD600: 0.008667
B. subtilis
  MIC values B. subtilis: 0.625 to 2.5 µg/mL
E. coli
  MIC values E. coli: >10 µg/mL
S. aureus
  MIC values S. aureus: 10 µg/mL
E. faecium E1133; time 0 h
  OD600: 0.016
E. faecium E1133; time 4 h
  OD600: 0.009667
E. faecium E1133; time 8 h
  OD600: 0.009333
E. faecium E1133; time 12 h
  OD600: 0.009333
E. faecium E1133; time 16 h
  OD600: 0.008667
erythrocytes
  hemolysis: negligible hemolysis
E. faecium E1162; time 0 h
  OD600: 0.024
E. faecium E1162; time 4 h
  OD600: 0.01533
E. faecium E1162; time 8 h
  OD600: 0.01133
E. faecium E1162; time 12 h
  OD600: 0.012
E. faecium E1162; time 16 h
  OD600: 0.01033
[1]
  leakage of the CF dye: about 50%
Thirty VRE strains; VRE strain E0013, GBR, vanA
  MIC: 8 µg/mL
Thirty VRE strains; VRE strain E0072, NLD, vanA
  MIC: 2 µg/mL
Thirty VRE strains; VRE strain E0300, USA, vanA
  MIC: 8 µg/mL
Thirty VRE strains; VRE strain E0321, FRA, vanA
  MIC: 2 µg/mL
Thirty VRE strains; VRE strain E0333, ISR, vanA
  MIC: 4 to 8 µg/mL
Thirty VRE strains; VRE strain E0338, ITA, vanA
  MIC: 8 µg/mL
Thirty VRE strains; VRE strain E0341, GBR, vanA
  MIC: 4 µg/mL
Thirty VRE strains; VRE strain E0506, AUS, vanA
  MIC: 4 to 8 µg/mL
Thirty VRE strains; VRE strain E0745, NLD, vanA
  MIC: 4 µg/mL
Thirty VRE strains; VRE strain E1130, USA, vanA
  MIC: 4 to 8 µg/mL
Thirty VRE strains; VRE strain E1441, GRC, vanA
  MIC: 4 µg/mL
Thirty VRE strains; VRE strain E1679, BRA, vanA
  MIC: 4 µg/mL
Thirty VRE strains; VRE strain E1763, BEL, vanA
  MIC: 8 µg/mL
Thirty VRE strains; VRE strain E2297, USA, vanA
  MIC: 4 µg/mL
Thirty VRE strains; VRE strain E2359, SGP, vanB
  MIC: 8 µg/mL
Thirty VRE strains; VRE strain E2365, HUN, vanB
  MIC: 2 to 4 µg/mL
Thirty VRE strains; VRE strain E2373, SRB, vanA
  MIC: 4 µg/mL
Thirty VRE strains; VRE strain E6016, LVA, vanA
  MIC: 4 µg/mL
Thirty VRE strains; VRE strain E7312, NLD, vanA
  MIC: 4 µg/mL
Thirty VRE strains; VRE strain E7314, NLD, vanB
  MIC: 4 to 8 µg/mL
Thirty VRE strains; VRE strain E7319, NLD, vanA
  MIC: 4 µg/mL
Thirty VRE strains; VRE strain E7329, NLD, vanA
  MIC: 4 µg/mL
Thirty VRE strains; VRE strain E7401, NLD, vanB
  MIC: 8 µg/mL
Thirty VRE strains; VRE strain E7403, NLD, vanB
  MIC: 4 µg/mL
Thirty VRE strains; VRE strain E7413, NLD, vanA
  MIC: 4 µg/mL
Thirty VRE strains; VRE strain E7424, NLD, vanB
  MIC: 4 µg/mL
Thirty VRE strains; VRE strain E7464, NLD, vanB
  MIC: 4 µg/mL
Thirty VRE strains; VRE strain E8218, NLD, vanB
  MIC: 4 µg/mL
Thirty VRE strains; VRE strain E8235, NLD, vanB
  MIC: 4 µg/mL
Thirty VRE strains; VRE strain E8237, NLD, vanA
  MIC: 8 µg/mL
